Data as given in patent publication US20240391954A1, “MC4R AGONIST PEPTIDES” (The Regents of the University of Michigan, priority 2021, published 2024).
Positions of bridges follow the written chain, without caps; N, C: chain ends. Non-standard residues stand in square brackets, D forms with d. Residues, ends and D or L forms follow the SMILES beside them. d(αMeF) = C[C@@](N)(Cc1ccccc1)C(=O)O; hCit = NC(=O)NCCCC[C@H](N)C(=O)O; Cit = NC(=O)NCCC[C@H](N)C(=O)O; Nle = CCCC[C@H](N)C(=O)O; Orn = NCCC[C@H](N)C(=O)O; Aib = CC(C)(N)C(=O)O

Legend:
Assay type in all cases: cell-based
[1] = target: T1, human MC3R (Homo sapiens, UniProt P41968); test: split-luciferase cAMP sensor assay, agonist mode (measurement window 1), hMC3R; details: for EC50: HEK-293 cells stably expressing hMC3R, read-out: MC3R cAMP EC50; for EC50 / Emax: agonist mode; for MC4R selectivity vs MC3R: MC4R versus MC3R; for Emax: % maximal activation, read-out: MC3R cAMP % max activation
T1 construct: expressed in transfected cells; host or cells: HEK-293 cells stably expressing the GScAMP22F split-luciferase cAMP sensor (parent reporter line from Promega); MC3R clone generated in-house, G418 selection
T1 sequence (P41968 whole entry): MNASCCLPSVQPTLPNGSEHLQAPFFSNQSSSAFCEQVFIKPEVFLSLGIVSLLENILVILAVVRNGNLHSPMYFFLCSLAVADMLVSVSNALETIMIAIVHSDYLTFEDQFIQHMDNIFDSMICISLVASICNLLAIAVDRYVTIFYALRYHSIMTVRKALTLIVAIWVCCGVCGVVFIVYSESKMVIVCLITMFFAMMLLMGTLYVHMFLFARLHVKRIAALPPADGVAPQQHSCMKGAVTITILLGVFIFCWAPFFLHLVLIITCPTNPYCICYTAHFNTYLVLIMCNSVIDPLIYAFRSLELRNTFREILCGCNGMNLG
Summary of the method: (§1)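 Live stable cell lines carrying receptor plus GloSensor cAMP22f split-luciferase, loaded with 4% D-luciferin in serum-free medium (~1% serum estimated during assay). Luminescence recorded during in-line peptide addition; direct agonist effect read in window 1, with 20 μM forskolin as normalization reference. EC50 from four-parameter sigmoid fit.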

[2] = target: T2, human MC4R (Homo sapiens, UniProt P32245); test: split-luciferase cAMP sensor assay, agonist mode (measurement window 1), hMC4R; details: agonist mode; for Emax: % maximal activation, read-out: MC4R cAMP % max activation; for EC50: HEK-293 cells stably expressing hMC4R, read-out: MC4R cAMP EC50
T2 construct: host or cells: HEK-293 cells stably expressing the GScAMP22F split-luciferase cAMP sensor and hMC4R, G418 selection
T2 sequence (P32245 whole entry): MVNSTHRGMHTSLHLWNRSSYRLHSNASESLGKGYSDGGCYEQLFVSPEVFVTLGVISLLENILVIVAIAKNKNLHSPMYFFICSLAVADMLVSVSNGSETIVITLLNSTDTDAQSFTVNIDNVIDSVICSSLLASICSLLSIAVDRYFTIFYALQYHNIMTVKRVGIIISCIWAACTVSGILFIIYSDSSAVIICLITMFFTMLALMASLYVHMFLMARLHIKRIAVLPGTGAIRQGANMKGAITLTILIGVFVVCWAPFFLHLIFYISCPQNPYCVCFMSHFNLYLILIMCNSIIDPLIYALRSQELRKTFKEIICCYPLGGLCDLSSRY
Summary of the method: as §1

[3] = target: T3, human MC1R (Homo sapiens, UniProt Q01726); test: split-luciferase cAMP sensor assay, agonist mode, hMC1R; details: MC4R versus MC1R
T3 construct: expressed in transfected cells; host or cells: HEK-293 cells stably expressing hMC1R and the GScAMP22F cAMP sensor
T3 sequence (Q01726 whole entry): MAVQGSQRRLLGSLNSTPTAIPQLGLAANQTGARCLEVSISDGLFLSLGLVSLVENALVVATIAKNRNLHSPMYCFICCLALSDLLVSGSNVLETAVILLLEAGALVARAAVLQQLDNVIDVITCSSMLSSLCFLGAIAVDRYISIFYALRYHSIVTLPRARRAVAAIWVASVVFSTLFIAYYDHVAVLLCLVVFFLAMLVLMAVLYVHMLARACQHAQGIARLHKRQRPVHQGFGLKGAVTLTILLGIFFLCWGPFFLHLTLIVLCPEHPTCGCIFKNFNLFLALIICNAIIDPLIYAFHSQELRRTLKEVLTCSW
Summary of the method: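 HEK-293 cells stably expressing hMC1R and the GScAMP22F split-luciferase cAMP sensor, preloaded 120 min at 37° C with D-luciferin in serum-free medium. Peptide responses were taken as peak luminescence over 2-13 min minus 2-min baseline, normalized to the α-MSH ECmax. EC50 was obtained from a four-parameter variable-slope fit.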

SMILES	EC50 [1]	MC4R selectivity vs MC3R [1]	Emax [2]	EC50 [2]	MC4R selectivity vs MC1R [3]	Emax [1]
COc1ccc(C[C@H]2NC(=O)[C@H](CCCNC(=N)N)NC(=O)C(C)(C)NC(=O)[C@@H](NC(=O)[C@H](CCCNC(=N)N)NC(C)=O)CSSC[C@@H](C(N)=O)NC(=O)[C@@H](Cc3c[nH]c4ccccc34)NC(=O)[C@H](CCCNC(=N)N)NC2=O)cc1 [CTX-1297, Arg-cyclo(Cys-Aib-Arg-D-Tyr(4-OMe)-Arg-D-Trp-Cys)] (Ac-RC[Aib]R[dY](Me)R[dW]C-NH2; disulfide 2-8 (inferred))	> 10 µM	>3,000	97%	0.0033 µM	0.52	–
N=C(N)NCCC[C@@H]1NC(=O)[C@@H](Cc2ccccc2)NC(=O)[C@H](CCCNC(N)=O)NC(=O)CNC(=O)CSC[C@@H](C(N)=O)NC(=O)[C@H](Cc2ccccc2)NC1=O [CTX-1655, Thioether-cyclo(Gly-Cit-D-Phe-Arg-Phe-Cys)] ({CH2CO}-G[Cit][dF]RFC-NH2; thioether N-6)	> 10 µM	Not active	–	> 10 µM	Not active	–
CC(=O)N[C@@H](CCCNC(=N)N)C(=O)N[C@H]1CSSC[C@@H](C(N)=O)NC(=O)[C@H](Cc2c[nH]c3ccccc23)NC(=O)[C@H](CCCNC(=N)N)NC(=O)[C@@H](Cc2ccccc2)NC(=O)[C@H](CCCNC(=N)N)NC(=O)C(C)(C)NC1=O [CTX-1292, Arg-cyclo(Cys-Aib-Arg-D-Phe-Arg-Trp-Cys)] (Ac-RC[Aib]R[dF]RWC-NH2; disulfide 2-8 (inferred))	–	21	90%	–	2.46	76%
CC1(C)NC(=O)CSC[C@@H](C(N)=O)NC(=O)[C@H](Cc2c[nH]c3ccccc23)NC(=O)[C@H](CCCNC(=N)N)NC(=O)[C@@H](Cc2ccccc2)NC(=O)[C@H](CCCNC(=N)N)NC1=O [CTX-1648, Thioether-cyclo(Aib-Arg-D-Phe-Arg-Trp-Cys)] ({CH2CO}-[Aib]R[dF]RWC-NH2; thioether N-6)	0.072 µM	63	101%	–	13	91%
CC(=O)N[C@H]1CSSC[C@@H](C(N)=O)NC(=O)[C@H](Cc2c[nH]c3ccccc23)NC(=O)[C@H](CCCNC(=N)N)NC(=O)[C@@H](Cc2ccccc2)NC(=O)[C@H](CCCNC(=N)N)NC(=O)CNC1=O [CTX-1629, cyclo(Cys-Gly-Arg-D-Phe-Arg-Trp-Cys)] (Ac-CGR[dF]RWC-NH2; disulfide 1-7)	0.013 µM	19	102%	–	15	83%
CC(=O)N[C@H]1CSSC[C@@H](C(N)=O)NC(=O)[C@H](Cc2ccccc2)NC(=O)[C@H](CCCNC(=N)N)NC(=O)[C@@H](Cc2ccccc2)NC(=O)[C@H](Cc2c[nH]cn2)NC(=O)C(C)(C)NC1=O [CTX-1634, cyclo(Cys-Aib-His-D-Phe-Arg-Phe-Cys)] (Ac-C[Aib]H[dF]RFC-NH2; disulfide 1-7 (inferred))	–	6.68	107%	–	4.02	94%
N=C(N)NCCC[C@@H]1NC(=O)[C@@H](Cc2ccccc2)NC(=O)[C@H](Cc2c[nH]cn2)NC(=O)CNC(=O)CSC[C@@H](C(N)=O)NC(=O)[C@H](Cc2c[nH]c3ccccc23)NC1=O [CTX-1644, Thioether-cyclo(Gly-His-D-Phe-Arg-Trp-Cys)] ({CH2CO}-GH[dF]RWC-NH2; thioether N-6)	–	53	111%	0.0023 µM	4.84	107%
COc1ccc(C[C@H]2NC(=O)[C@H](CCCNC(N)=O)NC(=O)C(C)(C)NC(=O)[C@@H](NC(=O)[C@H](CCCNC(=N)N)NC(C)=O)CSSC[C@@H](C(N)=O)NC(=O)[C@H](Cc3ccccc3)NC(=O)[C@H](CCCNC(=N)N)NC2=O)cc1 [CTX-1299, Arg-cyclo(Cys-Aib-Cit-D-Tyr(4-OMe)-Arg-Phe-Cys)] (Ac-RC[Aib][Cit][dY](Me)RFC-NH2; disulfide 2-8)	> 10 µM	>154	78%	–	3.66	–
COc1ccc(C[C@H]2NC(=O)[C@H](CCCNC(=N)N)NC(=O)C(C)(C)NC(=O)[C@@H](NC(=O)[C@H](CCCNC(=N)N)NC(C)=O)CSSC[C@@H](C(N)=O)NC(=O)[C@H](Cc3ccccc3)NC(=O)[C@H](CCCNC(=N)N)NC2=O)cc1 [CTX-1298, Arg-cyclo(Cys-Aib-Arg-D-Tyr(4-OMe)-Arg-Phe-Cys)] (Ac-RC[Aib]R[dY](Me)RFC-NH2; disulfide 2-8 (inferred))	> 10 µM	0.93	93%	0.0033 µM	0.12	–
CCCC[C@H](NC(=O)[C@H](CCCNC(=N)N)NC(C)=O)C(=O)N[C@H]1CSSC[C@@H](C(N)=O)NC(=O)[C@H](Cc2c[nH]c3ccccc23)NC(=O)[C@H](CCCNC(=N)N)NC(=O)[C@@H](Cc2ccccc2)NC(=O)[C@H](CCCN)NC1=O [CTX-1617, Arg-Nle-cyclo(Cys-Orn-D-Phe-Arg-Trp-Cys)] (Ac-R[Nle]C[Orn][dF]RWC-NH2; disulfide 3-8)	–	11	102%	–	1.75	102%
CC1(C)NC(=O)CSC[C@@H](C(N)=O)NC(=O)[C@H](Cc2ccccc2)NC(=O)[C@H](CCCNC(=N)N)NC(=O)[C@@H](Cc2ccccc2)NC(=O)[C@H](CCCNC(=N)N)NC1=O [CTX-1651, Thioether-cyclo(Aib-Arg-D-Phe-Arg-Phe-Cys)] ({CH2CO}-[Aib]R[dF]RFC-NH2; thioether N-6)	> 10 µM	>8	92%	–	1.45	–
CC(=O)N[C@H]1CSSC[C@@H](C(N)=O)NC(=O)[C@H](Cc2ccccc2)NC(=O)[C@H](CCCNC(=N)N)NC(=O)[C@@H](Cc2ccccc2)NC(=O)[C@H](CCCNC(N)=O)NC(=O)C(C)(C)NC1=O [CTX-1636, cyclo(Cys-Aib-Cit-D-Phe-Arg-Phe-Cys)] (Ac-C[Aib][Cit][dF]RFC-NH2; disulfide 1-7 (inferred))	–	9.44	102%	–	>12	44%
CC(=O)N[C@@H](CCCNC(=N)N)C(=O)N[C@H]1CSSC[C@@H](C(N)=O)NC(=O)[C@H](Cc2ccccc2)NC(=O)[C@H](CCCNC(=N)N)NC(=O)[C@@H](Cc2ccccc2)NC(=O)[C@H](CCCNC(=N)N)NC(=O)C(C)(C)NC1=O [CTX-1601, Arg-cyclo(Cys-Aib-Arg-D-Phe-Arg-Phe-Cys)] (Ac-RC[Aib]R[dF]RFC-NH2; disulfide 2-8)	–	2.3	97%	–	0.93	73%
CC(=O)N[C@@H](CCCNC(=N)N)C(=O)N[C@H]1CSSC[C@@H](C(N)=O)NC(=O)[C@H](Cc2c[nH]c3ccccc23)NC(=O)[C@H](CCCNC(=N)N)NC(=O)[C@@](C)(Cc2ccccc2)NC(=O)[C@H](CCCNC(=N)N)NC(=O)[C@@H](C)NC1=O [CTX-1278] (Ac-RC[dA]R[d(αMeF)]RWC-NH2; disulfide 2-8 (inferred))	–	12	105%	–	1.13	86%
CC(=O)N[C@H]1CSSC[C@@H](C(N)=O)NC(=O)[C@H](Cc2c[nH]c3ccccc23)NC(=O)[C@H](CCCNC(=N)N)NC(=O)[C@@H](Cc2ccccc2)NC(=O)[C@H](CCCNC(N)=O)NC(=O)C(C)(C)NC1=O [CTX-1633, cyclo(Cys-Aib-Cit-D-Phe-Arg-Trp-Cys)] (Ac-C[Aib][Cit][dF]RWC-NH2; disulfide 1-7 (inferred))	–	104	110%	–	942	45%
C[C@H]1NC(=O)CSC[C@@H](C(N)=O)NC(=O)[C@H](Cc2ccccc2)NC(=O)[C@H](CCCNC(=N)N)NC(=O)[C@@H](Cc2ccccc2)NC(=O)[C@H](CCCNC(=N)N)NC1=O [CTX-1657, Thioether-cyclo(D-Ala-Arg-D-Phe-Arg-Phe-Cys)] ({CH2CO}-[dA]R[dF]RFC-NH2; thioether N-6)	–	3.56	78%	–	1.42	30%
CC(=O)N[C@@H](CCCNC(=N)N)C(=O)N[C@H]1CSSC[C@@H](C(N)=O)NC(=O)[C@H](Cc2ccccc2)NC(=O)[C@H](CCCNC(=N)N)NC(=O)[C@@H](Cc2ccccc2)NC(=O)[C@H](CCCCNC(N)=O)NC(=O)C(C)(C)NC1=O [CTX-1603, Arg-cyclo(Cys-Aib-homo-Cit-D-Phe-Arg-Phe-Cys)] (Ac-RC[Aib][hCit][dF]RFC-NH2; disulfide 2-8 (inferred))	> 10 µM	>18	91%	–	2.46	–
CC(=O)N[C@H]1CSSC[C@@H](C(N)=O)NC(=O)[C@H](Cc2c[nH]c3ccccc23)NC(=O)[C@H](CCCNC(=N)N)NC(=O)[C@@H](Cc2ccccc2)NC(=O)[C@H](CCCNC(=N)N)NC(=O)[C@@H](C)NC1=O [CTX-1627, cyclo(Cys-D-Ala-Arg-D-Phe-Arg-Trp-Cys)] (Ac-C[dA]R[dF]RWC-NH2; disulfide 1-7 (inferred))	0.0037 µM	2.47	104%	0.0014 µM	9.33	98%
